These results are taken from patent US8314108B2, “5-(5-(2-(3-aminopropoxy)-6-methoxyphenyl)-1H-pyrazol-3-ylamino)pyrazine-2-carbonitrile, pharmaceutically acceptable salts thereof, or solvate of salts” (Eli Lilly and Company, priority 2008, dated 2012).

Where a name gives a salt, the structure may show the parent alone.

The subject of assay [1] is Calu-6 lung tumor xenograft. Nature of the assay: Human Tumor Xenograft Model, Calu-6 lung. The assay is classed as in vivo, nude mice. The conditions noted are these: Calu-6 xenograft. Here is the method: (§1) The ability of Chk1 inhibitors to effect tumor killing can be determined in vivo using the Calu-6 lung and HT-29 colon tumor xenograft efficacy models. Calu-6 lung cancer cells (ATCC) are cultured in growth media (MEM w/Earle's salts (Invitrogen) with L-glutamine (Gibco™) supplemented with 10% (v/v) heat inactivated FBS (Gibco™), 1×MEM non-essential amino acids (Gibco™), 1× sodium pyruvate (Gibco™)) and HT-29 colon cancer cells (ATCC) are cultured in growth media, (McCoy's 5A medium (Gibco™) supplemented with 10% FBS (Gibco™)) and expanded. Cells are harvested and washed twice with phosphate buffered saline and 5×10^6 cells (HT-29) or 1×10^6 cells (Calu-6) in growth media (without serum) are mixed with equal volume of BD Matrigel™ matrix (BD Bioscience, Franklin, N.J.), then injected subcutaneously into the flank of nude mice (CD-1 nu/nu, from Charles River Labs, Wilmington, Mass.). At about day 16 after implant (150-200 mm^3), gemcitabine is formulated fresh in saline daily and administered to animals by intraperitoneal route at 60 mg/kg dose. […] Tumor response is determined by tumor volume measurement performed twice a week during the course of treatment. Tumor growth inhibition (TGI) is calculated as the percent reduction in mean tumor size of a compound treated group from the mean tumor size of the vehicle-treated control group.
In general terms: In xenograft studies the graft and the host belong to different species.

The test system of the next assay is Calu-6 lung xenograft. Nature of the assay: Single Agent Efficacy Dosing, Calu-6 lung xenograft. The class given is in vivo, nude mice. The conditions noted are these: 15 mg/kg subcutaneously, BID×5 rest 2 days, ×3 cycles. Here is the method: The ability of Chk1 inhibitors to effect tumor killing can be determined in vivo using the Calu-6 lung xenograft efficacy model. Calu-6 lung cancer cells (ATCC) are cultured as described above. Cells are harvested and washed twice with phosphate buffered saline and 1×10^6 cells (Calu-6) in growth media (without serum) are mixed with equal volume of BD Matrigel™ matrix (BD Bioscience, Franklin, N.J.), then injected subcutaneously into the flank of nude mice (CD-1 nu/nu, from Charles River Labs, Wilmington, Mass.).

The subject of another assay is HT-29 cells. Description: ECtfs (Two-Fold Sensitization) Assay, 3H-thymidine incorporation. The assay is classed as cell-based. (Incorporation of labelled thymidine or its analogues reports DNA synthesis.)
For assay [2], the system named is Thirty solid tumor cell lines. Description: Monolayer Proliferation and Cytotoxicity Assay (modified propidium iodide assay, Oncotest). The class given is cell-based. The conditions noted are these: 96 h; majority of thirty solid tumor cell lines, 4 days of treatment; read-out: EC50 (growth inhibition of tumor cell lines). From the text:
One measure of potency of a Chk1 inhibitor is its ability to inhibit the proliferation of cancer cells in culture due to uncontrolled replication origin activation. (Conti et al. Cell Cycle 6: 2760-2767, 2007) Determination of Chk1 inhibitor antiproliferative activity in cell lines derived from a broad range of tumor types is indicative of which tumor types may be clinically responsive to chemotherapy with Chk1 inhibitors. The following described cellular proliferation assay is run at Oncotest, GmbH in Germany. Thirty solid tumor cell lines are derived from 13 different tumor histotypes, each represented by 1 to 6 different cell lines (Oncotest, GmbH). […] Briefly, adherent cells are harvested from exponential phase cultures by trypsinization, counted and plated in 96 well flat-bottomed microtiter plates at a cell density depending on the cell line (4.000-20.000 cells/well). […] Finally, PI fluorescence is measured using the Cytofluor 4000 microplate reader (excitation λ=530 nm, emission λ=620 nm) to determine the total viable cell number. Growth inhibition is expressed as Test/Control×100 (% T/C) values. Based on the T/C values, relative IC50 values are determined using non-linear regression (log [conc. of inhibitor] versus response (% T/C)).

Assay [3] deals with HT-29 colon tumor xenograft. Nature of the assay: Human Tumor Xenograft Model, HT-29 colon. The class given is in vivo, nude mice. The conditions noted are these: HT-29 xenograft. Here is the method: as §1
[4] abbreviates: stated jointly for both HT-29 and Calu-6 models.

Description for HT-29 cells: The capacity for continued tumor cell proliferation after DNA damage can be analyzed by determining the ability of cells to replicate their DNA. […] Following a recovery period, cells are assayed for the ability to incorporate radioactive thymidine into DNA during S phase. The ECtfs parameter is a measure of the concentration of a Chk1 inhibitor necessary to reduce by half the GI90 concentration of gemcitabine, measured in this assay in the absence of Chk1 inhibition. […] These cells are plated at 1.3×10^3 per well on Corning Costar 96-well tissue culture plates. After plating the cells, the tissue culture plates are held at room temperature for 45 minutes, before returning to 37° C. Plates are incubated for 24 hours prior to gemcitabine addition. Before gemcitabine addition, medium is removed from all wells and replaced with 150 μL per well of fresh RPMI medium. Gemcitabine stocks at 10 mM are prepared in phosphate-buffered saline. Gemcitabine dilutions were prepared at 4× concentrations in RPMI medium and added to wells at 50 μL per well. The highest final concentration of gemcitabine used is 80 μM and dilutions proceed by four-fold steps. Two hours later, gemcitabine-containing medium is removed from the wells and replaced with 150 μL per well of fresh RPMI medium. […] The volume of addition is 50 μL. Compound dilutions proceed by two-fold steps, starting at 5000 nM. […] 20 μL of this solution is added to each well, yielding 1 μCi/well of ^3H-thymidine. Cells are labeled for twenty-two hours. The medium containing ^3H-thymidine is thoroughly removed from the wells. The plates are then frozen at −20° C., for several hours. To harvest the DNA containing incorporated ^3H-thymidine, plates are thawed for several minutes, and then 120 μL per well of 0.1 N NaOH is added to each well. Each plate is then incubated at 37° C., with slow mixing on a rotator, for 10 minutes. […] The wells of the tissue culture plate on which cells had been labeled are washed with water 5×. The Unifilter plate membranes are washed with an additional 4.5 mL per well (3×1.0 mL and finally a 1.5 mL wash). The Unifilter plates are then dried at 37° C. for at least 6 hours. The bottom of each filter plate was sealed with a Backseal adhesive sheet (PerkinElmer), and the 50 μL/well of MicroScint-20 (Perkin Elmer) is added. Each plate is then sealed with a Topseal clear adhesive sheet (PerkinElmer). Plates are counted on a Topcount scintillation counter (PerkinElmer), at 1 minute per well. ^3H-thymidine counts per minute (cpm) are exported into Prism (GraphPad) for analysis and plotting. […] For plotting the data in Prism, the gemcitabine concentrations are transformed to log values, and dose-response curves are fit by non-linear regression. Neither top nor bottom fits are constrained.

Regarding `COc1cccc(OCCCN)c1-c1cc(Nc2cnc(C#N)cn2)n[nH]1` [Example 2, 5-(5-(2-(3-Aminopropoxy)-6-methoxyphenyl)-1H-pyrazol-3-ylamino)pyrazine-2-carbonitrile dihydrogen chloride salt], the anti-tumor activity entry in assay [1] (dosed alone and in combination with gemcitabine 60 mg/kg, intravenous, Q3Dx4) is “excellent dose dependent anti-tumor activity”; in assay [3] (dosed alone and in combination with gemcitabine 60 mg/kg, intraperitoneal, Q3Dx4), “excellent dose dependent anti-tumor activity”. Also, the “increase in tumor growth inhibition over gemcitabine alone” value in assay [1] (setting [4]) and in assay [3] (setting [4]) was “six-fold” in each case. In the assay on Calu-6 lung xenograft, the “growth inhibition compared with the gemcitabine plus compound combination schedule” value is given as “superior growth inhibition”. Moreover, in the assay with Calu-6 lung xenograft, the tumor regression result is “Complete tumor regression is rapid and durable”. Moreover, the “decrease of the EC50 of gemcitabine” value in the assay with HT-29 cells (3 nM of the compound of Example 2, HT29 colon carcinoma cells) was 7 fold. Further, the ECtfs value with HT-29 cells (concentration of Chk1 inhibitor necessary to reduce by half the GI90 concentration of gemcitabine, HT-29 cells) is recorded as 0.3 nM. Besides, the EC50 in assay [2] was less than 20 nM.
In the case of `Nc1ccn([C@@H]2O[C@H](CO)[C@@H](O)C2(F)F)c(=O)n1` [gemcitabine, reference compound], in the assay with HT-29 cells (Homo sapiens, HT-29, gemcitabine alone, HT29 colon carcinoma cells), the EC50 stood at 37 nM. Further, the “percentage of proliferation inhibition” value with HT-29 cells (gemcitabine alone, HT29 cells) was 52%.

The EC50 is the concentration at which the effect is half-maximal.
